Data as given in patent US20050080113A1, “Medicinal compositions” (priority 2001, published 2005).

Target: CYP3A4 (Homo sapiens, UniProt P08684)
Test: Measurement of CYP3A4 inhibitory activity (testosterone 6β-hydroxylation), Example 3
Assay type: in vitro ADME
Details: CYP3A4 enzyme preparation with control microsomes, pH 7.4, probe testosterone (100 μM; 6β-hydroxylation), CYP3A4, test substance 10 μM, 100 μM testosterone, 37° C. 30 min, read-out: inhibitory rate (%) at 10 μM
Protocol: 10 pmol/mL CYP3A4, 100 μM testosterone, 1/10 volume of the reaction mixture of NADPH generating system and test substance (10 μM) were added to a 50 mM phosphate buffer (pH 7.4) and control microsome was added to adjust the final concentration of protein to 1.0 mg/mL. The reaction mixture was prepared and reacted at 37° C. for 30 min. (amount of total reaction solution 100 μL). The reaction was quenched by the addition of 100 μL of acetonitrile. After stirring, 100 μL of distilled water was added and the mixture was further stirred. A supernatant obtained by centrifugation (15000 rpm) for 10 min. was injected to HPLC by 80 μL and concentration of 6 β-hydroxytestosterone produced by the reaction was measured.
For preparation of the NADPH generating system, 1 volume of 50 mM NADP (β-nicotinamide adenine dinucleotide oxidized type), 1 volume of 0.5 M glucose-6 phosphate, 5 volumes of 0.1 M magnesium chloride, 1 volume of 150 unit/mL glucose-6-phosphate […] and 2 volumes of distilled water were mixed.

Chain of CYP3A4 (P08684 whole entry): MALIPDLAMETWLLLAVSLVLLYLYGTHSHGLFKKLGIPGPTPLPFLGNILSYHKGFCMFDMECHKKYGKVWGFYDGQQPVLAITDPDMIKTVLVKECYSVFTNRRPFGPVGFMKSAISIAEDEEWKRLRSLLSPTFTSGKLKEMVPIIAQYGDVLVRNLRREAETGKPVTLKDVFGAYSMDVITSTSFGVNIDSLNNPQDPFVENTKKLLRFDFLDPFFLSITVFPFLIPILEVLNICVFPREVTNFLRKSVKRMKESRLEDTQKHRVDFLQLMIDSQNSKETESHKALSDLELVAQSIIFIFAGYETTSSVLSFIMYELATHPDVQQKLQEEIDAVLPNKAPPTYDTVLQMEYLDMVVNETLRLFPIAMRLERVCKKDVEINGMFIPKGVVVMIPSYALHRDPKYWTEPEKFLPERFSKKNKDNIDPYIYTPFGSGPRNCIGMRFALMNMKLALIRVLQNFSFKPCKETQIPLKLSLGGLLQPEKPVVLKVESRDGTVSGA

inhibition at 30 min, 10 μM [%] | Compound
< 30 | CCc1nc(-c2cccc(C)c2)c(-c2ccnc(C)c2)s1 [H 13, 2 ethyl-4 (3 methylphenyl)-5 (2 methyl-4 pyridyl)-1,3 thiazole]
< 30 | CCc1nc(-c2cccc(C)c2)c(-c2ccnc(F)c2)s1 [H 11, 2-ethyl-5-(2-fluoro-4-pyridyl)-4-(3-methylphenyl)-1,3-thiazole]
< 30 | CCc1nc(-c2cccc(C)c2)c(-c2ccnc(N)c2)s1 [H 22, 4-[2-ethyl-4-(3-methylphenyl)-1,3-thiazol-5-yl]-2-pyridylamine]
< 30 | CCc1nc(-c2cccc(C)c2)c(-c2ccnc(NC(C)=O)c2)s1 [H 29-2, N-[4-[2-ethyl-4-(3-methylphenyl)-1,3-thiazol-5-yl]-2-pyridyl]acetamide]
< 30 | CCc1nc(-c2cccc(C)c2)c(-c2ccnc(NCCCc3ccccc3)c2)s1 [D 19-4, N-[4-[2-ethyl-4-(3-methylphenyl)-1,3-thiazol-5-yl]-2-pyridyl]-N-(3-phenylpropyl)amine]
< 30 | CCc1nc(-c2cccc(C)c2)c(-c2ccnc(Cl)c2)s1 [H 69, 5 (2 chloro-4 pyridyl)-2 ethyl-4 (3 methylphenyl)-1,3-thiazole]

Tested on: not given
Test: not given
Details: not given

melting point [°C] | Compound
119 to 120 | CCCC(=O)Nc1cc(-c2sc(CC)nc2-c2cccc(Cl)c2)ccn1 [H 86, N-[4 [4 (3 chlorophenyl)-2-ethyl-1,3 thiazol-5 yl]-2 pyridyl]butyramide]
146 to 147 | CCc1nc(-c2cccc(C(F)(F)F)c2)c(-c2ccnc(NC(C)=O)c2)s1 [H 82-3, N-[4 [2 ethyl-4 (3-trifluoromethylphenyl)-1,3 thiazol-5 yl]-2 pyridyl]acetamide]
158 to 159 | CCc1nc(-c2ccccc2)c(-c2ccnc(N)c2)s1 [H 20-2, 4 (2 ethyl-4 phenyl-1,3-thiazol-5 yl)-2 pyridylamine]
126 to 127 | CCC(=O)Nc1cc(-c2sc(CC)nc2-c2cccc(C(F)(F)F)c2)ccn1 [H 84-3, N-[4 [2 ethyl-4 (3-trifluoromethylphenyl)-1,3 thiazol-5 yl]-2 pyridyl]propionamide]
228 to 230 | Cc1cccc(-c2nc(NC(=O)c3ccc(Cl)nc3)sc2-c2ccnc(C)c2)c1 [H 43, 6 chloro-N-[4 (3-methylphenyl)-5 (2 methyl-4 pyridyl)-1,3 thiazol-2-yl]nicotinamide]
69 to 71 | CCc1nc(-c2cccc(C)c2)c(-c2ccnc(N3CCOCC3)c2)s1 [H 36-9, 2 ethyl-4 (3-methylphenyl)-5 (2 morpholino-4 pyridyl)-1,3 thiazole]
114 to 115 | CCCCCC(=O)Nc1cc(-c2sc(CC)nc2-c2cccc(Cl)c2)ccn1 [H 88-2, N-[4 [4 (3 chlorophenyl)-2-ethyl-1,3 thiazol-5 yl]-2 pyridyl]hexanamide]
113 to 115 | CCCc1nc(-c2cccc(C)c2)c(-c2ccnc(N)c2)s1 [H 18-4, 4 [4 (3 methylphenyl)-2-propyl-1,3 thiazol-5 yl]-2 pyridylamine]
80 to 81 | CCc1nc(-c2cccc(C(C)C)c2)c(-c2ccnc(N)c2)s1 [H 20-10, 4 [2 ethyl-4 [3 (1-methylethyl)phenyl]-1,3 thiazol-5 yl]-2 pyridylamine]

The remaining lines, values behind:

Compound | melting point [°C]
Cc1cccc(-c2nc(-c3ccc(F)cc3)sc2-c2ccnc(NC(=O)CCc3ccccc3)c2)c1 [D 16-12, N-[4-[2-(4-fluorophenyl)-4-(3-methylphenyl)-1,3-thiazol-5-yl]-2-pyridyl]-3-phenylpropionamide] | 169 to 171
Cc1cccc(-c2nc(-c3ccccc3Cl)sc2-c2ccnc(NCc3ccccc3)c2)c1 [D 19-14, N-benzyl-N-[4 [2 (2-chlorophenyl)-4 (3 methylphenyl)-1,3 thiazol-5 yl]-2-pyridyl]amine] | 84 to 88
Cc1cccc(-c2nc(NC(=O)c3ccc(Cl)nc3)sc2-c2ccnc(NC3CCCC3)c2)c1 [H 44-2, 6 chloro-N-[5 (2-cyclopentylamino-4 pyridyl)-4 (3 methylphenyl)-1,3 thiazol-2-yl]nicotinamide] | 211 to 212
Cc1cc(C)cc(-c2nc(NC(=O)C(C)C)sc2-c2ccncc2)c1 [23-195, N-[4 (3,5 dimethylphenyl)-5 (4 pyridyl)-1,3 thiazol-2 yl]-2-methylpropionamide] | 270 to 272
Cc1cccc(-c2nc(-c3ccc(S(C)(=O)=O)cc3)sc2-c2ccnc(NC3CCCC3)c2)c1 [H 36-7, N-cyclopentyl-4-[4-(3-methylphenyl)-2-(4-methylsulfonylphenyl)-1,3-thiazol-5-yl]-2-pyridylamine] | 154 to 156
Cc1cccc(-c2nc(-c3ccc(S(C)(=O)=O)cc3)sc2-c2ccnc(N(C)CCc3ccccc3)c2)c1 [D 25-4, N-methyl-N-[4 [4 (3-methylphenyl)-2 (4 methylsulfonylphenyl)-1,3 thiazol-5 yl]-2 pyridyl]-N-(2 phenylethyl)amine] | 116 to 117
Cc1cccc(-c2nc(-c3ccc(S(C)(=O)=O)cc3)sc2-c2ccnc(NCc3cccs3)c2)c1 [D 25-5, N-[4 [4 (3 methylphenyl)-2-(4 methylsulfonylphenyl)-1,3 thiazol-5 yl]-2 pyridyl]-N-(2-thienylmethyl)amine] | 107 to 109
Cc1cccc(-c2nc(-c3ccc(S(C)(=O)=O)cc3)sc2-c2ccnc(NC(=O)c3cccs3)c2)c1 [D 21-3, N-[4 [4 (3 methylphenyl)-2-(4 methylsulfonylphenyl)-1,3 thiazol-5 yl]-2 pyridyl]-2-thiophenecarboxamide] | 199 to 201
Cc1cccc(-c2ncsc2-c2ccnc(NC(=O)Cc3ccccc3)c2)c1 [L 68-6, N-[4 [4 (3 methylphenyl)-1,3 thiazol-5 yl]-2 pyridyl]phenylacetamide] | 135 to 136
Cc1cccc(-c2nc(-c3ccc(S(C)(=O)=O)cc3)sc2-c2ccnc(N3CCN(C)CC3)c2)c1 [H 37-5, 4 (3 methylphenyl)-5 [2-(4 methyl-1 piperazinyl)-4 pyridyl]-2 (4-methylsulfonylphenyl)-1,3 thiazole] | 153 to 154
Cc1cccc(-c2nc(NC(=O)c3cccnc3)sc2-c2ccnc(NC3CCCCC3)c2)c1 [H 42-3, N-[5 (2 cyclohexylamino-4-pyridyl)-4 (3 methylphenyl)-1,3 thiazol-2 yl]nicotinamide] | 201 to 203
CCC(=O)Nc1cc(-c2sc(CCSC)nc2-c2cccc(Cl)c2)ccn1 [H 102-2, N-[4 [4 (3 chlorophenyl)-2 [2 (methylthio)ethyl]-1,3 thiazol-5 yl]-2-pyridyl]propionamide] | 91 to 92
Cc1cccc(-c2nc(N(C)C(=O)c3cccnc3)sc2-c2ccnc(NC3CCCCC3)c2)c1 [H 42-8, N-[5 (2 cyclohexylamino-4-pyridyl)-4 (3 methylphenyl)-1,3 thiazol-2 yl]-N-methylnicotinamide] | 147 to 148
CCc1nc(-c2ccc(Cl)cc2)c(-c2ccnc(NC(C)=O)c2)s1 [H 82-6, N-[4 [4 (4 chlorophenyl)-2-ethyl-1,3 thiazol-5 yl]-2 pyridyl]acetamide] | 190 to 191
CCC(=O)Nc1cc(-c2sc(C3CCNCC3)nc2-c2cccc(Cl)c2)ccn1.Cl.Cl | 202 to 203
CCc1nc(-c2cccc(OC)c2)c(-c2ccnc(NC(=O)Cc3ccccc3)c2)s1 [L 68-10, N-[4 [2 ethyl-4 (3-methoxyphenyl)-1,3 thiazol-5 yl]-2 pyridyl)phenylacetamide] | 128 to 129
CCC(=O)Nc1cc(-c2sc(C3CCN(C(C)=O)CC3)nc2-c2cccc(Cl)c2)ccn1 [H 94, N-[4 [2 (1 acetylpiperidin-4-yl)-4 (3 chlorophenyl)-1,3 thiazol-5 yl]-2-pyridyl]propionamide] | 174 to 175
Cc1cccc(-c2nc(-c3ccccc3Cl)sc2-c2ccnc(NCCc3ccccc3)c2)c1 [D 19-15, N-[4 [2 (2 chlorophenyl)-4 (3 methylphenyl)-1,3 thiazol-5 yl]-2 pyridyl]-N-(2-phenylethyl)amine] | 113 to 114
COc1ccc(C(=O)Nc2nc(-c3cccc(C)c3)c(-c3ccnc(NC4CCCC4)c3)s2)cn1 [H 48-2, N-[5 (2 cyclopentylamino-4 pyridyl)-4 (3 methylphenyl)-1,3-thiazol-2 yl]-6-methoxynicotinamide] | 219 to 221
